Reference: patent US7229762B2, “Proteomic screening for redox state dependent protein—protein interactions” (Duke University Medical Center, priority 2003, dated 2007)

Tests used:
[1] = target: T1, caspase-3 interaction with iNOS / ASM (Homo sapiens, UniProt P42574); test: Modified yeast two-hybrid, NO-dependent growth of iNOS/caspase-3 and ASM/caspase-3 clones; format: cell-based; conditions: iNOS/caspase-3 clone, presence vs absence of NO
T1 construct: expressed in transfected cells; host or cells: Saccharomyces cerevisiae CG-1945 Δyhb1
T1 sequence (P42574 1-277): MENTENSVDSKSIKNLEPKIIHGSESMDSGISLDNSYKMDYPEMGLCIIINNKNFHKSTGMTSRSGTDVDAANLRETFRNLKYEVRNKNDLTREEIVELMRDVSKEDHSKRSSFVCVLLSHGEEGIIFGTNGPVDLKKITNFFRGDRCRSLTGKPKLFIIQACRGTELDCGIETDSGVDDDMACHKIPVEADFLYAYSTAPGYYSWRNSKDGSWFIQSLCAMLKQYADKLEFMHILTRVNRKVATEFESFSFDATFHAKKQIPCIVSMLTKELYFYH
Procedure: Yeast (Δyhb1) were transformed with Gal4 BD-caspase-3 plasmid (bait) and a cDNA library (Gal4 AD prey plasmids) derived from activated (NO generating) macrophages. Screening was performed as described in the methods below. DETA-NO at less than 300 μM generates NO without inhibiting yeast growth (monitored by absorbance at 600 nm). Steady state NO concentrations are maintained at ˜100 nM–1 μM range for several days as measured with an NO electrode (not shown).
Auxotrophic selection was carried out on agar plates (15 cm in diameter) enriched in 50 mM phosphate buffer (pH 7.2; His-Trp-Leu (triple)-deficient buffered medium (TDBM)). […] Prey plasmids were isolated from positive yeast clones and then re-introduced into the bait strain to confirm bait-prey interactions. Method 2: After cells were seeded on 1.5% agar they were covered with 3% low melting point agar, which in turn was layered with culture medium. NO donors (e.g. DETA-NO; 300 μM final concentration) were added to the liquid layer every 24 hours. Colonies are grown for 4 days as described in ref 9. Method 3:
Auxotrophic selection was carried out in TDBM. Transformation with the cDNA library was followed by overnight growth in medium deficient in tryptophan and leucine. Transformants were then grown for 3 days in His-deficient medium supplemented with DETA-NO (typically 200 μM final concentration). […]

AIF/MIP-1α interaction = target: T2, AIF/MIP-1α interaction (UniProt O95831+P10855); test: Modified yeast two-hybrid, NO-dependent growth of AIF/MIP-1α clone; format: cell-based; conditions: 200 μM DETA-NO, 72 hrs
T2 construct: The entire open reading frame of AIF was derived from I.M.A.G.E. clones 1520292 and 25192; expressed in transfected cells; host or cells: Saccharomyces cerevisiae Δyhb1
T2 sequence (O95831 102-613): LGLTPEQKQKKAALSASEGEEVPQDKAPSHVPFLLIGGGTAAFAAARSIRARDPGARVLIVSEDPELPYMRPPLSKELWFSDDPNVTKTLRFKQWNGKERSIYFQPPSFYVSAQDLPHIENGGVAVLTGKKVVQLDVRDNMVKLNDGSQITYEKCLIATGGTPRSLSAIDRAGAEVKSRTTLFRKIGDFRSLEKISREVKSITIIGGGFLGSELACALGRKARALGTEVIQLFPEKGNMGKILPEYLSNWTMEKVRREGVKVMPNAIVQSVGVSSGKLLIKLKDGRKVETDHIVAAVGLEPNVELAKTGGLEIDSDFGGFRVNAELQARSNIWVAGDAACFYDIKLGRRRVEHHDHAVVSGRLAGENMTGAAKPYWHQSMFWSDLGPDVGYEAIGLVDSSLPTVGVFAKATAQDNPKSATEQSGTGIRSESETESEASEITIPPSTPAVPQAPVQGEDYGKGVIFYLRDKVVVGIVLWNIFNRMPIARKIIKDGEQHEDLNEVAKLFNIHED
T2 sequence (P10855 24-92): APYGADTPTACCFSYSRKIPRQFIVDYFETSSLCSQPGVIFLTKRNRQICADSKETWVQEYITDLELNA
Procedure: Yeast (Δyhb1) were transformed with Gal4 BD-AIF (Bait) and Gal4 AD-MIP-1α (Prey). (A) Robust growth of the AIF/MIP-1α clone requires NO (single asterisk, P<0.001 versus AIF/MIP-1α without NO) (n=6). […] Cells were grown in His-Trp-Leu-deficient medium at 30° C. for 72 hrs with or without 200 μM DETA-NO. (B) β-galactosidase activities in samples shown in A (single asterisk, P<0.001 vs. without NO, n=4).
To extend the generality of our findings, 2.5 million transformants were screened from our macrophage cDNA library for NO-dependent interactions, using apoptosis-inducing factor (AIF) as bait. AIF is implicated in cell death that is independent of caspase-3, and is not known to be regulated by NO (Lipton et al., 2002). […] One of these clones contained the entire cDNA sequence of the chemokine, macrophage inflammatory protein-1 alpha (MIP-1α). Since this clone contained a few extra amino acids derived from a linker sequence, the full length MIP-1α coding sequence was amplified by PCR and cloned into the pGAD 10 vector, whose NO-dependent interaction with AIF was verified.

ASM = target: T3, ASM (Homo sapiens, UniProt P17405); test: ASM activity assay of purified ASM (BODIPY FL C5-sphingomyelin); format: biochemical; conditions: DETA-NO 50 μM–200 μM, 30 or 60 min, pH 5.0
T3 sequence (P17405 47-631): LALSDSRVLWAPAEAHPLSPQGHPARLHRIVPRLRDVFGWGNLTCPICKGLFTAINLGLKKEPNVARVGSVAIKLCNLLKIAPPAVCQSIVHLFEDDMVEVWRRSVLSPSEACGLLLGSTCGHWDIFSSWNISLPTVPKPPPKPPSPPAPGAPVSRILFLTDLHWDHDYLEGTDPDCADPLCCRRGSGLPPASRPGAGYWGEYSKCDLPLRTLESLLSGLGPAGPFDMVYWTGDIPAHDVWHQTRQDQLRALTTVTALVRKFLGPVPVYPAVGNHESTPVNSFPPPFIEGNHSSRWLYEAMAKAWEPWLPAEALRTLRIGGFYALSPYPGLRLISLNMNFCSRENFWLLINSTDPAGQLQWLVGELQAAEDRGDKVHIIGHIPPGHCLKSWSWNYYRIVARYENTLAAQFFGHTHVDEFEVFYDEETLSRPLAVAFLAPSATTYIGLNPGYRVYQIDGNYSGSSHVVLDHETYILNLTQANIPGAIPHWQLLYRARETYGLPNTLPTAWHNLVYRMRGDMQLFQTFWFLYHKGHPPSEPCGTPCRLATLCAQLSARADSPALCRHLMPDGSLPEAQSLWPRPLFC
Procedure: (§1) ASM activity was measured essentially as described (E. Romiti et al., 2000), using BODIPY FL C5-sphingomyelin substrate (1.5 nmol) in assay buffer: 250 mM sodium acetate, pH 5.0, 10 mM EDTA. To assay Zn-stimulated ASM activity, 0.1 mM ZnCl was used instead of 10 mM EDTA. 30 μl sample was incubated with 70 μl assay buffer at 37° C. for 1–3 hours. Reactions were terminated by adding 1.0 ml heptane and 0.29 ml isopropyl alcohol. Phases were separated by adding 0.23 ml H2O. The heptane phase was washed with 0.23 ml H2O. The fluorescence of the organic phase (containing BODIPY FL-ceramide) was assayed at 505/514 nm excitation/emission wavelengths (slit width=2.5).
Purified ASM protein (3.4 μg) was treated with DETA-NO (50 μM–200 μM for 30 or 60 min) and ASM activity was measured at pH 5.0 (n=3).

[2] = target: T4, caspase-3/ASM interaction (Homo sapiens, UniProt P42574); test: In vitro ASM/caspase-3 co-precipitation, ASM activity in caspase-3 IPs; format: binding; conditions: 20 μM DETA-NO 60 min, then ASM 37° C. 2 hrs
T4 sequence (P42574 29-277): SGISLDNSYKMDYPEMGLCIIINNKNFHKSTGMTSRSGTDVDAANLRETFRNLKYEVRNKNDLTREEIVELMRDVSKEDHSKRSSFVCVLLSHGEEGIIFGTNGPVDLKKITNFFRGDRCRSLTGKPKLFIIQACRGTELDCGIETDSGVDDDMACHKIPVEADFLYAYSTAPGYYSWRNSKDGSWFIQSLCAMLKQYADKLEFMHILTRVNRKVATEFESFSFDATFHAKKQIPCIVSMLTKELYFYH
T4 sequence (P17405 47-631 partner): T3 sequence (P17405 47-631)
Procedure: as §1, with “width=2.5). […]” for “width=2.5).”
Purified caspase-3 was incubated in the presence or absence 20 μM DETA-NO for 60 min (30 nM steady state NO), followed by incubation with ASM at 37° C. for 2 hrs, and IP with caspase-3 antibody. […] The interaction of caspase-3 with ASM was measured as ASM activity in caspase-3 IP's (pH 5.0). […]
To determine the relevant target(s) of NO, ASM/caspase-3 co-precipitations were carried out following NO treatment of each partner alone. Using an ASM activity assay, the amounts of ASM that could be precipitated with a procaspase-3 antibody was assessed from co-incubates (2 hours at 37° C.) of ASM (20 pmol) and caspase-3 in limiting amounts (2.5 pmol). […]

With `[N]=O` [NO, nitric oxide] the “NO-dependent growth of iNOS transformant” value [1] was ~9 fold, the “increase in growth in the presence of NO” value (AIF/MIP-1α interaction) was 8 fold and the “effect on ASM activity” value (ASM) was “no direct effect on ASM activity”. For the same compound, the “binding of ASM to caspase-3 pretreated with NO” value [2] was “induces binding of ASM”.
